Data set [1] in a line: Oral bioavailability in CD1 mouse. The data set is classed as ADME, organism-based. As to conditions: in vivo.
The nature of data set [2]: AUC in CD1 mouse at 10 mg/kg, po. It is filed as ADME, organism-based. Also on record: dose 10 mg/kg, route oral. As to conditions: plasma.
The nature of data set [3]: Clearance in Sprague-Dawley rat at 5 mg/kg, iv. As to conditions: in vivo.
The nature of data set [4]: Stability in mouse hepatocyte assessed as metabolic turnover after 6 hrs. The data set is classed as ADME, cell-based. The following applies: hepatocytes.
Data set [5] in a line: Oral bioavailability in Beagle dog at […], po. It is filed as ADME, organism-based, Canis lupus familiaris. As to conditions: in vivo.
A short description of data set [6]: Stability in human hepatocyte assessed as metabolic turnover after 6 hrs. It is filed as ADME, cell-based. As to conditions: hepatocytes, read-out: Stability.
Data set [7] in a line: Clearance in cynomolgus monkey at […], iv. It is filed as ADME, organism-based, Macaca fascicularis. Also on record: dose 2.5 mg/kg, route intravenous. The following applies: in vivo.
Data set [8] in a line: Lipophilicity, log D at pH 7.4. It is filed as physicochemical. As to conditions: buffer.
A short description of data set [9]: Half life in Beagle dog at […], iv. The data set is classed as ADME, organism-based, Canis lupus familiaris. Further details: dose 2.5 mg/kg, route intravenous. The following applies: in vivo.
The nature of data set [10]: AUC in Sprague-Dawley rat at 5 mg/kg, po. The data set is classed as ADME, organism-based. The following applies: plasma. Also on record: dose 5 mg/kg, route oral.
Data set [11] is described as follows: Stability in monkey hepatocyte assessed as metabolic turnover after 6 hrs. The data set is classed as ADME, cell-based, Macaca mulatta. The following applies: rhesus monkey, hepatocytes.
Data set [12] in a line: Stability in dog hepatocyte assessed as metabolic turnover after 6 hrs. The data set is classed as ADME, cell-based, Canis lupus familiaris. As to conditions: hepatocytes.
A short description of data set [13]: Volume of distribution in Beagle dog at […]. The data set is classed as ADME, organism-based, Canis lupus familiaris. Also on record: dose 2.5 mg/kg. The following applies: in vivo, read-out: Vdss.
Data set [14] is described as follows: AUC in cynomolgus monkey at […], po. The data set is classed as ADME, organism-based, Macaca fascicularis. Further details: dose 2.5 mg/kg, route oral. The following applies: plasma.
The nature of data set [15]: Half life in cynomolgus monkey at […], iv. It is filed as ADME, organism-based, Macaca fascicularis. Also on record: dose 2.5 mg/kg, route intravenous. As to conditions: in vivo.
The nature of data set [16]: Volume of distribution in cynomolgus monkey at […], iv. The data set is classed as ADME, organism-based, Macaca fascicularis. Further details: dose 2.5 mg/kg, route intravenous. As to conditions: in vivo, read-out: Vdss.
The nature of data set [17]: Half life in Sprague-Dawley rat at 5 mg/kg, iv. The data set is classed as ADME, organism-based. Further details: dose 5 mg/kg, route intravenous. As to conditions: in vivo.
The nature of data set [18]: Oral bioavailability in cynomolgus monkey at […], po. The data set is classed as ADME, organism-based, Macaca fascicularis. As to conditions: in vivo.
Data set [19] in a line: Aqueous solubility at pH 7 at room temperature. The following applies: buffer. The data set is classed as physicochemical.
Data set [20] is described as follows: Oral bioavailability n Sprague-Dawley rat at 5 mg/kg, po. It is filed as ADME, organism-based. The following applies: in vivo.
The nature of data set [21]: Clearance in Beagle dog at […], iv. The following applies: in vivo. The data set is classed as ADME, organism-based, Canis lupus familiaris. Also on record: dose 2.5 mg/kg, route intravenous.
Data set [22] is described as follows: AUC in Beagle dog at […], po. The data set is classed as ADME, organism-based, Canis lupus familiaris. Also on record: dose 2.5 mg/kg, route oral. As to conditions: plasma.
Data set [23] is described as follows: Volume of distribution in Sprague-Dawley rat at 5 mg/kg, iv. The data set is classed as ADME, organism-based. Also on record: dose 5 mg/kg, route intravenous. The following applies: in vivo, read-out: Vdss.

These results are taken from ChEMBL document CHEMBL1142982, “Discovery of N-(4-(3-amino-1H-indazol-4-yl)phenyl)-N'-(2-fluoro-5-methylphenyl)urea (ABT-869), a 3-aminoindazole-based orally active multitargeted receptor tyrosine kinase inhibitor” (J Med Chem, 2007).

Values after ≈ are worked out from the molar mass of the structure shown.

In data set [1], `Cc1cccc(NC(=O)Nc2ccc(-c3cccc4c3c(N)nn4C)cc2)c1` yielded a bioavailability of 89%. Besides, the AUC in data set [2] was found to be 19.8 µM·h.
In data set [1], `Cc1cccc(NC(=O)Nc2ccc(-c3ccc(OCCN4CCOCC4)c4[nH]nc(N)c34)cc2)c1` displayed a bioavailability of 20%. In data set [2], this compound had an AUC of 1 µM·h.
Taken in the same sequence, the figures for `Cc1cccc(NC(=O)Nc2ccc(-c3cccc4[nH]nc(N)c34)cc2)c1` were 38% and 6.5 µM·h.
Consider `Cc1cc(NC(=O)Nc2ccc(-c3cccc4[nH]nc(N)c34)cc2)ccc1F`, for which, in data set [1], the bioavailability turned out to be 66%. In addition, in [2], the AUC is 10.9 µM·h.
With `Cc1ccc(F)c(NC(=O)Nc2ccc(-c3cccc4[nH]nc(N)c34)cc2)c1` [LINIFANIB], the values for the clearance in [3], in data set [7] and in data set [21] were 3.3 mL/min/kg, 8.2 mL/min/kg and 7.2 mL/min/kg, respectively. In addition, the parent remaining at 6 h in data set [4], in [11] and in data set [12] was 91% throughout. The bioavailability in data set [5] turned out to be 47%; in data set [1], 100%; in data set [18], 10.6%; in data set [20], 27%. Moreover, the metabolised at 6 h in [6] worked out at 91%. Further, in [8], the logD amounted to 4.2. Besides, the results for the half-life in data set [9], in data set [15] and in data set [17] were 2 h, 3.1 h and 3.6 h, respectively. Moreover, the exposure (AUC) in [10] is 6800 ng·h/mL; in data set [14], 600 ng·h/mL; in [2], 24.5 µM·h; in data set [22], 1500 ng·h/mL. Besides, the Vd turned out to be 1.2 L/kg in data set [13], 2.2 L/kg in data set [16] and 1.1 L/kg in data set [23]. The compound further displayed a Solubility in data set [19] of 0.027 µg/mL (≈ 0.0719 µM).
`Nc1n[nH]c2cccc(-c3ccc(NC(=O)Nc4cccc(Cl)c4)cc3)c12`: the bioavailability in data set [1] came to 50%. For the same compound, the AUC in [2] is 15 µM·h.
